Data published in patent US7754727B2, “4-phenylpiperidine derivatives as renin inhibitors” (Novartis AG, priority 2003, dated 2010).
Structures can show the parent of a compound that is named as a salt.

Target: T1, Recombinant human renin (Homo sapiens, UniProt P00797)
T1 construct: made in house; host or cells: Chinese Hamster Ovary cells
T1 sequence (P00797 67-406): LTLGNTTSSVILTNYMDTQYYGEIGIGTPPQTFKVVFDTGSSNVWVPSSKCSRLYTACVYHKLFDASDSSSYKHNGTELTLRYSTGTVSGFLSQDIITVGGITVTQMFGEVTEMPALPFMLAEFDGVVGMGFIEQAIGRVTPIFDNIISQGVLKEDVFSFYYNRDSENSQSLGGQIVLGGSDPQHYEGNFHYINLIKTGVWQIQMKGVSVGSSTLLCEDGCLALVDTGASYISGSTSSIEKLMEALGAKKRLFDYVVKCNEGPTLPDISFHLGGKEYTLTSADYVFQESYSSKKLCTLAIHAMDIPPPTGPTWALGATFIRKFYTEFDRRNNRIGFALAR
Assay: FRET assay of inhibition of renin activity
Format: biochemical
Details: recombinant human renin 4 nM, 1 h at RT, pH 7.4
Description: Recombinant human renin (expressed in Chinese Hamster Ovary cells and purified using standard methods) at 4 nM concentration is incubated with test compound at various concentrations for 1 h at RT in 0.1 M Tris-HCl buffer, pH 7.4, containing 0.05 M NaCl, 0.5 mM EDTA and 0.05% CHAPS. Synthetic peptide substrate Arg-Glu(EDANS)-Ile-His-Pro-Phe-His-Leu-Val-Ile_His_Thr-Lys(DABCYL)-Arg9 is added to a final concentration of 2 μM and increase in fluorescence is recorded at an excitation wave-length of 340 nm and at an emission wave-length of 485 nm in a microplate spectro-fluorimeter. IC50 values are calculated from percentage of inhibition of renin activity as a function of test compound concentration (Fluorescence Resonance Energy Transfer, FRET, assay).

- IC50: ~70 nM
SMILES: c1ccc(-c2cccc([C@H]3CCNC[C@@H]3OCc3ccc4ccccc4c3)c2)cc1 (relative stereo) [Example 1, (3R*,4R*)-4-Biphenyl-3-yl-3-(naphthalen-2-ylmethoxy)-piperidine hydrochloride]
